What was measured:
[1] = system: TRAC; assay: Editing of TRAC by dgRNAs in HEK cells stably expressing Cas9 (NGS); format: cell-based, human; settings: dgRNA delivered to HEK cells stably expressing Cas9, target TRAC, mean of at least 3 experiments
Source text: (§1) FIG. 12: Mean (n≥3) editing of CRISPR systems with dgRNAs as indicated to TRAC in HEK cells (stably expressing Cas9) or primary human CD3+ T cells (delivery of dgRNA:Cas9 RNP by electroporation).

[2] = system: TRAC locus; assay: Genomic editing of the TRAC locus in primary human CD3+ T cells by RNP electroporation (NGS: % indels, % frameshift edits, indel pattern); format: cell-based; settings: dgRNA/Cas9 RNP by electroporation, target TRAC; for mean FS edit (%): frameshift edits in primary human CD3+ T cells; for mean total % edit: primary human CD3+ T cells, mean of at least 3 experiments;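 on all read-outs here: total edit is the insertion or deletion frequency at TRAC, and the frameshift value is the share of those indels that shift the coding frame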
Source text: as §1
FIG. 33C: Genomic editing of the TRAC locus resulting from human primary T cell electroporation with RNP containing the indicated gRNA targeting the TRAC locus is shown. The frequency of insertions or deletions is indicated (% indels) and the percentage of these edits that result in frameshifting of the coding sequence is shown (% frameshift edits).
Data for each experiment are the average from triplicate PCR products.

Sequence | mean % edit [1] | mean FS edit (%) [2] | mean total % edit [2]
GCUUUCACCUCCUUGGGGGU (chemistry not given here; listed as Homo sapiens) [CR001008] | 13.6% | 4.5% | 5.1%
GGAAACACACCUCUUGUCUU (chemistry not given here; listed as Homo sapiens) [CR000953] | 66.0% | 14.4% | 17.7%
GGUGUCAUAUGUGCAGCUCA (chemistry not given here; listed as Homo sapiens) [CR000938] | 55.0% | 12.5% | 13.9%
GUAGCAGCUUUCACCUCCUU (chemistry not given here; listed as Homo sapiens) [CR001011] | 64.8% | 10.8% | 13.2%
GUAGGAGAGUUCCCUCUGUU (chemistry not given here; listed as Homo sapiens) [CR001006] | 56.8% | 10.4% | 13.6%
UAAACCCGGCCACUUUCAGG (chemistry not given here; listed as Homo sapiens) [CR000990] | 63.7% | 25.3% | 36.1%
UAAAUAAUAAUCACUCUCAC (chemistry not given here; listed as Homo sapiens) [CR000940] | 55.0% | 14.4% | 22.1%
UAGCAGCUUUCACCUCCUUG (chemistry not given here; listed as Homo sapiens) [CR001010] | 48.3% | 18.6% | 21.2%
UAGGCAGACAGACUUGUCAC (chemistry not given here; listed as Homo sapiens) [CR000963] | 68.4% | 25.3% | 32.5%
UAUUCUUGUGCUCUCAGAGA (chemistry not given here; listed as Homo sapiens) [CR000952] | 57.9% | 5.6% | 5.8%
UCAAGGCCCCUCACCUCAGC (chemistry not given here; listed as Homo sapiens) [CR000995] | 23.2% | 2.5% | 1.9%
UCCUCCUCCUGAAAGUGGCC (chemistry not given here; listed as Homo sapiens) [CR000988] | 41.9% | 17.4% | 22.3%
UCUGUUGCUUAUAAGCUUCU (chemistry not given here; listed as Homo sapiens) [CR000946] | 65.9% | 9.2% | 9.8%
UGCUCACAGGUCCCUGCUGC (chemistry not given here; listed as Homo sapiens) [CR000925] | 56.9% | 12.3% | 19.1%
UGCUCAUGACGCUGCGGCUG (chemistry not given here; listed as Homo sapiens) [CR000994] | 46.9% | 10.8% | 21.5%
UGGUGUCAUAUGUGCAGCUC (chemistry not given here; listed as Homo sapiens) [CR000939] | 27.7% | 12.1% | 13.5%
UUCAAAACCUGUCAGUGAUU (chemistry not given here; listed as Homo sapiens) [CR000983] | 59.8% | 18.2% | 26.6%
UUGCCGGGGGGGCACAGAGG (chemistry not given here; listed as Homo sapiens) [CR001013] | 29.7% | 17.6% | 19.6%
UUUCAAAACCUGUCAGUGAU (chemistry not given here; listed as Homo sapiens) [CR000982] | 48.1% | 23.2% | 28.5%
